The text below walks through data of patent US12215106B2, “Pharmaceutical compounds and therapeutic methods” (RUTGERS, THE STATE UNIVERSITY OF NEW JERSEY, priority 2018, dated 2025).

Assay [1] concerns glioblastoma patient derived spheres. The experiment in a line: MTT assay, cell viability of patient derived GBM spheres. Type of assay: cell-based. The following applies: Homo sapiens. The text has this: To generate primary patient-derived GBM models for testing small molecule inhibitors, fresh primary tissues were received from patients undergoing surgical resection of WHO grade IV gliomas at Robert Wood Johnson University Hospital (RWJUH) under an approved IRB protocol. De-identified primary human GBM samples were delivered to the laboratory. Cells were obtained through mechanical dissociation of the tumor tissue using a blade and plated in DMEM/F12 medium (Gibco) in the presence of B-27 Supplement (Gibco, #17504-044), 20 ng/ml of human recombinant EGF (Gibco, #PHG0311L) and human recombinant FGF (Peprotech, #AF-100-18B). The following day, the culture was collected, incubated with Accutase (Gibco, #A11105-01) at 37° C. and passed through a 26G×⅜ needle (BD Precision Glide, #305110) to obtain a single cell suspension and re-plated in the same supplemented medium. Cells were cultured at low (5-6) passages in serum-free sphere 3D culture with mitogens that preserve the clonogenic stemness phenotype. […] different primary GBM cells (GBM #46, GBM #50, and GBM #76) were tested for cell viability after treatment with the inhibitors. Cell viability was measured using MTT assay. Briefly, one thousand cells per well were seeded in 96-well plates and exposed to drug in a total of 200 uL media. After 72 hours, 50 uL of stock concentration of 2.5 mg/mL 3-(4,5-dimethylthiazol-2-yl)-2,5-diphenyltetrazolium bromide (MTT) (Sigma, #M2128) dissolved in PBS was added to wells and incubated at 37° C. for 4 hours; read in a […] plate reader at 570 nm and compared to DMSO and untreated cells. The IC50 (defined as the concentration at which 50% of the cells were viable) was determined from the curve.
Novel compounds were synthesized and examined for their effectiveness on inhibiting the growth of patient derived GBM sphere cells that are more enriched in cancer stem-like cells (CSCs). An IC50 was established by measuring cell viability using a MTT assay when compared to vehicle control (DMSO) (FIG. 1-6).

For the next assay, the system named is PD-L1. The experiment in a line: Western blotting of PD-L1 levels in GBM spheres. It is filed as cell-based, human.
Another assay concerns BMI1. Kind of assay: Western blotting of BMI1 protein levels in GBM spheres. It is filed as cell-based, human. The following applies: for BMI1 levels: GBM spheres, 72 hours, Western blotting. The method, then:
Different GBM cells were treated with DMSO or different concentrations of test compounds for 72 hours. Cells were lysed in Cell Lysis Buffer (Cell Signaling, #9803) supplemented with Protease Inhibitor Cocktail (Sigma, #P8340), spun down for 30 minutes at 4° C., after which the supernatant was collected at every time point indicated. Western blotting analysis was performed on all samples as described above. BMI1 loss started at 6-12 hours, coinciding with an upper shift and hyper-phosphorylation of BMI1 at 12-24 hours and complete depletion at 72 hours.
GBM cells were treated with DMSO or different concentrations of the test compounds for 72 hours. Cells were lysed in Cell Lysis Buffer (Cell Signaling, #9803) supplemented with Protease Inhibitor Cocktail (Sigma, #P8340), sonicated briefly while on ice and spun down for 30 minutes at 4° C., after which the supernatant was collected. For each sample, 2 uL of lysate was mixed well into 198 uL de-ionized water. Next, 10 uL of this diluted sample was added to a well in a 96 well plate in quadruplets and mixed with Protein Assay Dye Reagent Concentrate (Bio-Rad, #500-0006) (which was diluted 1:5 with water). BSA standards of 25 ng, 50 ng, 100 ng, 200 ng and 250 ng were also used to the plate and mixed with the reagent. The plate was read in a plate reader at 600 nm and samples were calibrated to the standards to determine the concentration of protein. Using the NuPAGE system (Invitrogen), 25 ug of protein was mixed with NuPAGE LDS 4× Sample Buffer (#NP0007), NuPAGE 10× Reducing Agent (#NP0004) and water, mixed well and heated at 96° C. for 15 minutes to denature the protein. The samples were then loaded into 4-12% Bis-Tris gels (Novex (Invitrogen), #0323) with a protein ladder (Novex (Invitrogen) Sharp Pre-stained protein ladder, #57318) and run at 100-120V for about 2 hours with NuPAGE 20×SDS MES Running Buffer (#NP0002) diluted with water. Next, the gel was taken out and loaded into a NuPAGE transfer cassette with a polyvinylidene membrane with NuPAGE 20× Transfer Buffer (#NP0006-1) diluted with water and methanol. Proteins were transferred for 1 hour at 30V at room temperature. Blocking was performed using the Millipore SNAP i.d. Protein Detection system in 0.25% non-fat dry milk in 0.1% Tween in PBS (PBST). […] Protein signals were detected using ECL Western Blotting Substrate (Pierce, #32106) and filmed.
BMI1 levels in GBM spheres were then analyzed by Western Blotting over a time-course of 120 hours upon treatment with compound 14 at 7-10 nM conc. […]

[2] abbreviates: 72 h, read-out: IC50, antitumor activity against glioblastoma patient derived spheres.
The mark [3] stands for this setting: read-out: Potency in patient derived GBM spheres.

Structures are written as SMILES. Counter-ions that a name gives are not always drawn. Like-named read-outs stand apart in the source and are kept apart here.

As to `COc1c(F)cc(Nc2nc(-c3c(C)nc4ccccn34)cs2)cc1F` [Compound 14, hydrochloride], the IC50 in assay [1] (MTT, 72 hours, figure legends, read-out: IC50, antitumor activity against glioblastoma patient derived spheres) was 7 nM; in assay [1] (summary data, read-out: Potency in patient derived GBM spheres) it was 10 nM. For the same molecule, in the assay on PD-L1 (7-10 nM, time-course of 120 hours), the “PD-L1 levels, time-course” value is reported as “modulate of the levels of PD-L1”. In addition, in the assay with BMI1 (7-10 nM, single treatment, time-course of 120 hours), the “BMI1 protein levels, time-course” value was “reduction in BMI1 protein levels at 72, 96 and 120 hours”. Also, in the assay on BMI1, the BMI1 levels result was “Lowered BMI1 levels”.
`[2H]C([2H])([2H])Oc1ccc(Nc2nc(-c3c(C)nc4ccccn34)cs2)cc1` [Compound 15, N-(4-(methoxy-d3)phenyl)-4-(2-methylimidazo[1,2-c]pyridin-3-yl)thiazol-2-amine hydrochloride]: the IC50 in assay [1] (setting [2]) is 7 nM; in assay [1] (setting [3]), 1000 nM. The BMI1 levels result in the assay with BMI1 is reported as “slightly lowered BMI1 levels”.
As to `Cc1nc2ccccn2c1-c1csc(Nc2ccc3c(c2)OC(F)(F)O3)n1` [Compound 16, N-(2,2-difluorobenzo[d][1,3]dioxol-5-yl)-4-(2-methylimidazo[1,2-a]pyridin-3-yl)thiazol-2-amine hydrochloride], the IC50 in assay [1] (setting [2]) was found to be 200 nM; in assay [1] (setting [3]), 10 nM.
Regarding `[2H]C1([2H])Oc2ccc(Nc3nc(-c4c(C)nc5ccccn45)cs3)cc2O1` [Compound 17, N-(benzo[d][1,3]dioxol-5-yl-2,2-d2)-4-(2-methylimidazo[1,2-c]pyridin-3-yl)thiazol-2-amine hydrochloride], the IC50 in assay [1] (setting [2]) came out at 20 nM; in assay [1] (setting [3]), 10 nM. The PDL1 levels entry with PD-L1 (GBM spheres, Western blotting) is given as “increased PDL1”. For the same molecule, the BMI1 levels result in the assay with BMI1 is recorded as “Lowered BMI1 levels”.
